Laboratory results from patent publication US6384066B1, “Sulphonyltriazol derivatives and their use for combating micro-organisms” (priority 1998, dated 2002).

Tests used:
[1] = tested on: Phytophthora infestans; assay type: in vivo; details: tomato plants, protective spray, application rate 50 g/ha, evaluation 3 days after inoculation; 100% = no infection

With Cc1noc(C)c1S(=O)(=O)n1nc(Cl)nc1-c1ccccc1 [Example 1] the melting point was 70 to 74 °C.

In the case of Cc1noc(C)c1S(=O)(=O)n1nc(Cl)nc1-c1ccccc1 [drawing 94], the Efficacy in % [1] is reported as 97%.
